Laboratory results as given in ChEMBL document CHEMBL1124638, “2,4-Diamino-5-benzylpyrimidines and analogues as antibacterial agents. 10. 2,4-Diamino-5-(6-quinolylmethyl)- and -[(tetrahydro-6-quinolyl)methyl]pyrimidine derivatives. Further specificity studies” (J Med Chem, 1989).

Columns and labels:
[1] = system: Bordetella bronchiseptica; experiment: Comparative in vitro antibacterial activity with trimethoprim against Bordetella bronchiseptica CN385; format: functional
Citrobacter freundii = experiment: Comparative in vitro antibacterial activity with trimethoprim against Citrobacter freundii 2200/77; format: functional
Dihydrofolate reductase [2] = biological target: T1, Dihydrofolate reductase (Rattus norvegicus, UniProt Q920D2); experiment: Inhibitory activity against dihydrofolate reductase in rat liver; details: read-out: I50
T1 sequence (Q920D2 whole entry): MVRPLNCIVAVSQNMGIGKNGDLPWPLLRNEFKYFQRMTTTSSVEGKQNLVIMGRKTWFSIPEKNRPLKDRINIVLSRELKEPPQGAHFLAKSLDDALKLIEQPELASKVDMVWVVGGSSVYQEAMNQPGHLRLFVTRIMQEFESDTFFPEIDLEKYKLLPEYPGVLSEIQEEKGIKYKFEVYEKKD

Escherichia coli = experiment: Comparative in vitro antibacterial activity with trimethoprim against Escherichia coli CN314; format: functional
Klebsiella aerogenes = experiment: Comparative in vitro antibacterial activity with trimethoprim against Enterobacter aerogenes 2200/86; format: functional
[3] = system: Mycolicibacterium smegmatis; experiment: Comparative in vitro antibacterial activity with trimethoprim against Mycobacterium smegmatis S 3254; format: functional
Proteus mirabilis = experiment: Comparative in vitro antibacterial activity with trimethoprim against Proteus mirabilis S2409; format: functional
Proteus vulgaris = experiment: Comparative in vitro antibacterial activity with trimethoprim against Proteus vulgaris CN329; format: functional
[4] = Comparative in vitro antibacterial activity with trimethoprim against Salmonella typhi CN512; format: functional, salmonella typhosa
Shigella flexneri = experiment: Comparative in vitro antibacterial activity with trimethoprim against Shigella flexneri CN6007; format: functional
Serratia marcescens = experiment: Comparative in vitro antibacterial activity with trimethoprim against Serratia marcescens CN2398; format: functional
Salmonella typhimurium = experiment: Comparative in vitro antibacterial activity with trimethoprim against Salmonella Typhimurium S 8587; format: functional, Salmonella enterica subsp. enterica serovar Typhimurium; details: Salmonella enterica
Streptococcus pyogenes = experiment: Comparative in vitro antibacterial activity of compound with trimethoprim against Streptococcus pyogenes CN10; format: functional
Staphylococcus aureus = experiment: Comparative in vitro antibacterial activity with trimethoprim against Staphylococcus aureus CN491; format: functional
Enterococcus faecalis = experiment: Comparative in vitro antibacterial activity with trimethoprim against Streptococcus faecalis CN478; format: functional
Streptococcus agalactiae = experiment: Comparative in vitro antibacterial activity with trimethoprim against Streptococcus agalactiae CN1143; format: functional
Vibrio cholerae = experiment: Comparative in vitro antibacterial activity with trimethoprim against Vibrio cholerae ATCC 14035; format: functional
Pasteurella multocida = experiment: Comparative in vitro antibacterial activity with trimethoprim against Pasteurella multocida ATCC 6587; format: functional
Klebsiella pneumoniae = experiment: Comparative in vitro antibacterial activity with trimethoprim against Klebsiella pneumoniae CN3632; format: functional
Dihydrofolate reductase [5] = biological target: Dihydrofolate reductase (Neisseria gonorrhoeae, UniProt P04174); experiment: Inhibitory activity against Dihydrofolate reductase in Neisseria gonorrhoeae; details: read-out: I50
Sequence of Dihydrofolate reductase (Neisseria gonorrhoeae, UniProt P04174) (P04174 whole entry): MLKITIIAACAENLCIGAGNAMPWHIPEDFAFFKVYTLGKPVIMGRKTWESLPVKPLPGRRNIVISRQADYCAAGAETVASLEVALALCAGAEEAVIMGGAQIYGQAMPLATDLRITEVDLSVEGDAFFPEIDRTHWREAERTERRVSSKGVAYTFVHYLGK

COCCOc1cc(Cc2cnc(N)nc2N)cc2cccnc12
100 µg/mL: MIC (Escherichia coli) | MIC (Klebsiella aerogenes) | MIC [4] | MIC (Shigella flexneri) | MIC (Salmonella typhimurium) | MIC (Klebsiella pneumoniae)
> 100 µg/mL: MIC (Proteus vulgaris)
10 µg/mL: MIC (Staphylococcus aureus) | MIC (Streptococcus agalactiae)
> 30 µg/mL: MIC (Proteus mirabilis)
3 µg/mL: MIC [3] | MIC (Streptococcus pyogenes) | MIC (Enterococcus faecalis)
300 µg/mL: MIC (Citrobacter freundii)
30 µg/mL: MIC [1] | MIC (Vibrio cholerae) | MIC (Pasteurella multocida)
9.9 µM: IC50 (Dihydrofolate reductase [2])
> 10 µg/mL: MIC (Serratia marcescens)

COc1cc(Cc2cnc(N)nc2N)cc2c1NCCC2C (stereo not drawn)
3 µg/mL: MIC (Escherichia coli) | MIC (Klebsiella aerogenes) | MIC (Proteus mirabilis) | MIC (Serratia marcescens) | MIC (Pasteurella multocida) | MIC (Klebsiella pneumoniae)
1 µg/mL: MIC [3] | MIC (Streptococcus pyogenes) | MIC (Staphylococcus aureus) | MIC (Enterococcus faecalis) | MIC (Streptococcus agalactiae) | MIC (Vibrio cholerae)
10 µg/mL: MIC [1] | MIC (Citrobacter freundii) | MIC (Proteus vulgaris) | MIC [4] | MIC (Shigella flexneri) | MIC (Salmonella typhimurium)

COCCN1CCC(C)c2cc(Cc3cnc(N)nc3N)cc(OC)c21 (stereo not drawn)
1 µg/mL: MIC (Streptococcus pyogenes)
260 µM: IC50 (Dihydrofolate reductase [2])
30 µg/mL: MIC (Escherichia coli) | MIC (Klebsiella aerogenes) | MIC [4] | MIC (Pasteurella multocida) | MIC (Klebsiella pneumoniae)
> 10 µg/mL: MIC (Serratia marcescens)
1400 nM: IC50 (Dihydrofolate reductase [5])
> 100 µg/mL: MIC (Proteus vulgaris)
100 µg/mL: MIC [1] | MIC (Citrobacter freundii) | MIC (Shigella flexneri) | MIC (Salmonella typhimurium) | MIC (Vibrio cholerae)
3 µg/mL: MIC (Staphylococcus aureus) | MIC (Streptococcus agalactiae)
0.3 µg/mL: MIC (Enterococcus faecalis)
10 µg/mL: MIC [3]

Cc1ccnc2c([N+](=O)[O-])cc(Cc3cnc(N)nc3N)cc12
30 µg/mL: MIC (Serratia marcescens)
5.7 µM: IC50 (Dihydrofolate reductase [2])
10 µg/mL: MIC (Citrobacter freundii) | MIC (Escherichia coli) | MIC (Klebsiella aerogenes) | MIC (Proteus mirabilis) | MIC (Proteus vulgaris) | MIC (Shigella flexneri) | MIC (Salmonella typhimurium) | MIC (Klebsiella pneumoniae)
1 µg/mL: MIC [3] | MIC (Streptococcus pyogenes) | MIC (Staphylococcus aureus) | MIC (Streptococcus agalactiae) | MIC (Vibrio cholerae)
3 µg/mL: MIC [1] | MIC [4] | MIC (Enterococcus faecalis) | MIC (Pasteurella multocida)

Cc1ccnc2c(N)cc(Cc3cnc(N)nc3N)cc12
32 µM: IC50 (Dihydrofolate reductase [2])
10 µg/mL: MIC (Citrobacter freundii) | MIC (Escherichia coli) | MIC (Klebsiella aerogenes) | MIC [3] | MIC [4] | MIC (Streptococcus agalactiae) | MIC (Pasteurella multocida) | MIC (Klebsiella pneumoniae)
1 µg/mL: MIC (Proteus mirabilis)
30 µg/mL: MIC [1] | MIC (Shigella flexneri) | MIC (Serratia marcescens) | MIC (Salmonella typhimurium)
3 µg/mL: MIC (Proteus vulgaris) | MIC (Staphylococcus aureus) | MIC (Enterococcus faecalis) | MIC (Vibrio cholerae)

Nc1ncc(Cc2ccc3c(c2)CCCN3)c(N)n1
140 µM: IC50 (Dihydrofolate reductase [2])
3 µg/mL: MIC [3]
30 µg/mL: MIC (Escherichia coli) | MIC (Shigella flexneri) | MIC (Staphylococcus aureus)
10 µg/mL: MIC [1] | MIC (Citrobacter freundii) | MIC (Klebsiella aerogenes) | MIC (Proteus mirabilis) | MIC (Proteus vulgaris) | MIC [4] | MIC (Serratia marcescens) | MIC (Salmonella typhimurium) | MIC (Streptococcus pyogenes) | MIC (Enterococcus faecalis) | MIC (Streptococcus agalactiae) | MIC (Vibrio cholerae) | MIC (Pasteurella multocida) | MIC (Klebsiella pneumoniae)

Cc1ccnc2ccc(Cc3cnc(N)nc3N)cc12
22 µM: IC50 (Dihydrofolate reductase [2])
3 µg/mL: MIC (Citrobacter freundii) | MIC (Escherichia coli) | MIC (Klebsiella aerogenes) | MIC (Shigella flexneri) | MIC (Salmonella typhimurium) | MIC (Streptococcus pyogenes)
1 µg/mL: MIC [1] | MIC [3] | MIC (Proteus mirabilis) | MIC (Proteus vulgaris) | MIC [4] | MIC (Serratia marcescens) | MIC (Staphylococcus aureus) | MIC (Enterococcus faecalis) | MIC (Streptococcus agalactiae) | MIC (Vibrio cholerae) | MIC (Pasteurella multocida) | MIC (Klebsiella pneumoniae)

COc1cc(Cc2cnc(N)nc2N)cc2c1N(C)CCC2C (stereo not drawn)
10 µg/mL: MIC (Proteus vulgaris) | MIC (Shigella flexneri) | MIC (Salmonella typhimurium)
3 µg/mL: MIC [1] | MIC (Citrobacter freundii) | MIC (Escherichia coli) | MIC (Klebsiella aerogenes) | MIC [3] | MIC (Proteus mirabilis) | MIC [4] | MIC (Serratia marcescens) | MIC (Vibrio cholerae) | MIC (Pasteurella multocida) | MIC (Klebsiella pneumoniae)
0.3 µg/mL: MIC (Enterococcus faecalis) | MIC (Streptococcus agalactiae)
890 nM: IC50 (Dihydrofolate reductase [5])
1 µg/mL: MIC (Staphylococcus aureus)

CN1CCCc2cc(Cc3cnc(N)nc3N)ccc21
30 µg/mL: MIC [1] | MIC (Citrobacter freundii) | MIC (Escherichia coli) | MIC (Klebsiella aerogenes) | MIC (Proteus vulgaris) | MIC [4] | MIC (Serratia marcescens) | MIC (Salmonella typhimurium) | MIC (Pasteurella multocida) | MIC (Klebsiella pneumoniae)
10 µg/mL: MIC [3] | MIC (Proteus mirabilis) | MIC (Shigella flexneri) | MIC (Staphylococcus aureus) | MIC (Streptococcus agalactiae) | MIC (Vibrio cholerae)
3 µg/mL: MIC (Enterococcus faecalis)
950 nM: IC50 (Dihydrofolate reductase [5])
89 µM: IC50 (Dihydrofolate reductase [2])
